In the supplement of paper PMC6723410:

Tested on: GUMC-403
Test: viability at highest tested concentration (max response) relative to DMSO (% of DMSO control); higher = less cytotoxic
Conditions: library / dose series: MIPE library, 11-point 1:3 dilution, 48 h
Summary of the method: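 In 1536-well plates, 700 GUMC-403 papilloma cells per well, taken from a patient and grown by conditional reprogramming, were seeded in 5 μL F + Y medium and incubated overnight at 37 °C. Compounds were pinned in at 23 nL in an 11-point 1:3 series, and left for 48 h before CellTiter-Glo luminescence was read on a ViewLux against vehicle (100%) and empty (0%) wells. Reported values are viability at the highest tested concentration relative to vehicle control.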

SMILES | viability (top concentration 46.1 µM) | other results
CC(C)(O)[C@H]1CC[C@@](C)([C@H]2[C@@H](O)C[C@@]3(C)[C@@H]4C[C@H](O[C@@H]5O[C@H](CO)[C@@H](O)[C@H](O)[C@H]5O)[C@H]5C(C)(C)[C@@H](O[C@@H]6OC[C@@H](O)[C@H](O)[C@H]6O)CC[C@@]56C[C@@]46CC[C@]23C)O1 | 119 | –
CO[C@H]1/C=C/O[C@@]2(C)Oc3c(C)c(O)c4c(O)c(c(/C=N/N5CCN(C)CC5)c(O)c4c3C2=O)NC(=O)/C(C)=C\C=C\[C@H](C)[C@H](O)[C@@H](C)[C@@H](O)[C@@H](C)[C@H](OC(C)=O)[C@@H]1C | – | viability (top concentration 11.1 µM): 107
C[C@@H]1C/C=C/C=C/C=C/C=C/[C@@H](O[C@@H]2O[C@H](C)[C@@H](O)[C@H](N)[C@@H]2O)C[C@@H]2O[C@](O)(C[C@@H](O)C[C@@H]3O[C@H]3/C=C/C(=O)O1)C[C@H](O)[C@H]2C(=O)O | 104 | –
CC(=O)C1=C(O)C2(C)C(=CC1=O)Oc1c(C(C)=O)c(O)c(C)c(O)c12 (stereo not given) | 143 | –
C[C@]12CC[C@@H]3c4ccc(O)cc4CC[C@H]3[C@@H]1[C@@H](O)[C@@H](O)[C@@H]2O | 94.5 | –
CC[C@@H]1/C=C(\C)C[C@H](C)C[C@H](OC)[C@H]2O[C@@](O)(C(=O)C(=O)N3CCCC[C@H]3C(=O)O[C@H](/C(C)=C/[C@@H]3CC[C@H](Cl)[C@H](OC)C3)[C@H](C)[C@@H](O)CC1=O)[C@H](C)C[C@@H]2OC | 63.6 | –
O=C(CCCCCCNC(=O)c1cnc(N(c2ccccc2)c2ccccc2)nc1)NO | 117 | –
CCNC(=O)Nc1ccc(Oc2ncnc(N)c2/C=N/OC)cc1Cl | 109 | –
COC1=CC=C(C=C1)C2CC(=N/N2C3=CC=C(C=C3)[S+](N)([O-])=O)\C4=CC=CC=C4 (stereo not given) | 137 | –
CC1(C)C(N(O)C(=O)Nc2ccc(Cl)cc2)N(c2ccc(Cl)cc2)C(=O)N1CC(=O)N/N=C/C=C/c1ccc([N+](=O)[O-])o1 (stereo not given) | 85.4 | –
COC(=O)C1=C(C)NC(C)=C(C(=O)OCCN2CCN(C(c3ccccc3)c3ccccc3)CC2)C1c1cccc([N+](=O)[O-])c1.Cl.Cl (stereo not given) | 86.5 | –
CC1(CN2CCC(n3c(=O)[nH]c4ccccc43)CC2)OCc2ccccc2-n2cccc21 (stereo not given) | 82.8 | –
O=[N+]([O-])c1cn2c(n1)OC[C@@H](OCc1ccc(OC(F)(F)F)cc1)C2 | 111 | –
O=[S+]([O-])(/N=C/c1c(O)ccc2ccccc12)c1cccs1 | 87.9 | –
C[C@]12CCC3c4ccc(O)cc4CCC3C1CCC2=O (stereo not given in full) | 94.8 | –
N[C@@H](CC(=O)N1CCn2c(nnc2C(F)(F)F)C1)Cc1cc(F)c(F)cc1F | 97.9 | –
CC[C@H](NC(=O)[C@H](C)NC)C(=O)N1C[C@@H](O)C[C@H]1Cc1c(-c2[nH]c3cc(F)ccc3c2C[C@@H]2C[C@H](O)CN2C(=O)[C@H](CC)NC(=O)[C@H](C)NC)[nH]c2cc(F)ccc12 | 108 | –
O=C(O)CCC1CCC(c2cc(F)ccc2F)([S+](=O)([O-])c2ccc(Cl)cc2)CC1 (stereo not given) | 99.9 | –
CC(N)C12CC3CC(CC(C3)C1)C2 (stereo not given) | 104 | –
O=C1[C@H](Cc2ccc(O)cc2)N2C(=O)CCN(C(=O)NCc3ccccc3)[C@H]2CN1Cc1cccc2ccccc12 | 78.2 | –
CN1\C(=C(O)/C2=C(C=C(Cl)S2)[S+]1([O-])=O)C(=O)NC3=NC=CC=C3 | 67.8 | –
CC1=C(C)C(=O)C(C(CCCCCC(=O)O)c2ccccc2)=C(C)C1=O (stereo not given) | 110 | –
O=C(Nc1ccccc1-c1cn2c(CN3CCNCC3)csc2n1)c1cnc2ccccc2n1 | 81.3 | –
Nc1nccc(-c2ccc3noc(-c4ccc(Cl)cc4)c3c2)n1 | 80.1 | –
CC1(C)[C@@H](O[C@H]2O[C@H](C(=O)O)[C@@H](O)[C@H](O)[C@H]2O[C@@H]2O[C@H](C(=O)O)[C@@H](O)[C@H](O)[C@H]2O)CC[C@]2(C)[C@H]3C(=O)C=C4[C@@H]5C[C@@](C)(C(=O)O)CC[C@]5(C)CC[C@@]4(C)[C@]3(C)CC[C@@H]12 | 115 | –

SMILES | viability (top concentration 46.1 µM) | other results
CC/C(=C(/CC)c1ccc(O)cc1)c1ccc(O)cc1 | 84.8 | –
C[C@H]1[C@H](NC(=O)/C(=N/OC(C)(C)C(=O)O)c2csc(N)n2)C(=O)N1[S+](=O)([O-])O | 114 | –
COCCNCCCn1c(C(=O)CF)c(-c2ccc(C)cc2)c2c(N)ncnc21 | 90.7 | –
CNC(=O)c1ccc(N2C(=S)N(c3ccc(C#N)c(C(F)(F)F)c3)C(=O)C23CCC3)cc1F | 81.8 | –
NC(=O)OCC(COC(N)=O)c1ccccc1 | 110 | –
CNC(=O)c1ccc2c(c1)NC(=O)/C2=C(\Nc1cccc(CN(C)C)c1)c1ccccc1 | 107 | –
C[C@]12C[C@H](O)[C@H]3[C@@H](CC\C4=C\C(=O)\C=C/[C@]34C)[C@@H]1CC[C@]2(O)C(=O)CO | 118 | –
C/C=C(/C)C(=O)O[C@H]1C(C)=C[C@]23C(=O)[C@@H](C=C(CO)[C@@H](O)[C@]12O)[C@H]1[C@@H](C[C@H]3C)C1(C)C | 106 | –
CCN(C(=O)C/1=C(O)/C2=C(C=CC=C2Cl)N(C)C1=O)C3=CC=CC=C3 | 119 | –
CCn1c(-c2nonc2N)nc2cnc(Oc3cccc(NC(=O)c4ccc(OCCN5CCOCC5)cc4)c3)cc21 | 65.4 | –
CCC1=C(C)CN(C(=O)NCCc2ccc(S(=O)(=O)NC(=O)N[C@H]3CC[C@H](C)CC3)cc2)C1=O | 113 | –
N#Cc1c(N(CC(=O)[O-])CC(=O)[O-])sc(C(=O)[O-])c1CC(=O)[O-].O.O.O.O.O.O.O.[Sr+2].[Sr+2] | 112 | –
O=C(O)CCCCCC(=O)NN=C1CCCC1 | 108 | –
CCCCOc1ccc(CC(=O)NO)cc1 | 109 | –
N#CC1(c2ccc(NC(=O)c3cccnc3NCc3ccncc3)cc2)CCCC1 | 101 | –
C=CC1=C(C(=O)O)N2C(=O)[C@@H](NC(=O)/C(=N\O)c3csc(N)n3)[C@H]2SC1 | 130 | –
Cc1ccc(Nc2cc(-c3cccc(N4C(=O)c5ccccc5C4=O)c3)ncn2)cc1N[S+](C)(=O)[O-] | 117 | –
CC(C)c1noc(N2CCC(COc3ccc(-c4ccc([S+](C)(=O)[O-])cc4)nc3)CC2)n1 | 91.9 | –
Cc1c(OCC(F)(F)F)ccnc1C[S+]([O-])c1nc2ccccc2[nH]1 (stereo not given) | 82.7 | –
CN1CC(=O)N2[C@H](c3ccc4c(c3)OCO4)c3[nH]c4ccccc4c3C[C@@H]2C1=O | 91.5 | –
CC(C)C1NC(=O)C(NC(=O)C2=C3\N=C\4/C(=C(C)\C(=O)\C(=C4C(=O)NC5C(C)OC(=O)C(C(C)C)N(C)C(=O)CN(C)C(=O)C6CCCN6C(=O)C(NC5=O)C(C)C)N)OC3=C(C)C=C2)C(C)OC(=O)C(C(C)C)N(C)C(=O)CN(C)C(=O)C7CCCN7C1=O (stereo not given) | 12.2 | –
Cn1c(CNc2ccc(C(=N)N)cc2)nc2cc(C(=O)N(CCC(=O)O)c3ccccn3)ccc21 | – | viability (top concentration 23 µM): 134
CO[C@H]1C[C@H]2OC[C@@]2(OC(C)=O)[C@H]3[C@H](OC(=O)C4=CC=CC=C4)[C@]5(O)C[C@H](OC(=O)[C@H](O)[C@@H](NC(=O)OC(C)(C)C)C6=CC=CC=C6)/C(=C(/[C@@H](OC)C(=O)[C@]13C)C5(C)C)C | 88.5 | –
CC(=O)O[C@H]1C[C@@H]2CC[C@@H]3[C@H](CC[C@@]4(C)[C@H]3C[C@H]([N+]3(C)CCCCC3)[C@@H]4OC(C)=O)[C@@]2(C)C[C@@H]1[N+]1(C)CCCCC1 | 122 | –
COc1ccc(-n2nc(C(N)=O)c3c2C(=O)N(c2ccc(N4CCCCC4=O)cc2)CC3)cc1 | 146 | –
